Tested on: luciferase-based reporter constructs in S2R+ cells
Assay: Luciferase-based mutation reporter assay (sgRNA mutation efficiency)
Type: cell-based, Drosophila
Conditions: sgRNAs with no mismatches targeting luciferase-based reporter in S2R+ cells; mutation rate = 1/Firefly luciferase normalized to Renilla
Protocol: The luciferase reporter vector was constructed by PCR amplifying the metallothionein promoter from pMK33 and luciferase gene from pGL3 (Table 1) and combining these with annealed oligos containing a gRNA target site (Table 1 and Table 2) and a custom made cloning vector using Golden Gate assembly.
Luciferase assays were performed by transfecting S2R+ cells with the relevant pl018 plasmid, luciferase reporter and pRL-TK (Promega) (to allow normalization of transfection efficiencies between samples) in 96 well plates using Effectene Transfection Reagent (Qiagen) according to the manufacturer's recommendations. Twenty-four hours after transfection, CuSO4 was added to the cell media at a final concentration of 140 μM and cells were incubated for a further 16 hours.
Firefly and Renilla luciferase readings were taken using the Dual-Glo Luciferase Assay System (Promega) according to manufacturer's instructions and a SpectraMax Paradigm Multi-Mode Microplate Detection Platform (Molecular Devices).
Because the rate of mutations varies widely between different sgRNAs (25-27), whether efficiency could be predicted based on the sgRNA sequence was tested. 75 additional sgRNAs were generated, each targeting luciferase-based reporter constructs with no mismatches and tested mutation efficiency for each. Using this panel of sgRNAs and associated efficiencies, the presence or absence of a correlation between GC content and mutation rate was examined. […] Next, whether a more general sequence-based approach was tested for its ability to improve efficiency prediction. The nucleotide content of all 75 sgRNAs was examined, considering each position separately and generated a probability matrix linking nucleotide content with mutation rate (FIG. 1, panel B). This was then used to generate predicted efficiency scores based on sgRNA sequence. […] Note that sgRNAs targeting close to the 3′ end of genes or with apparent viability effects were not included in this analysis. Finally, predicted scores were generated for all sgRNA target sites in the Drosophila genome and annotated.

| Substance | Mean efficiency |
| --- | --- |
| AAACAGAAGGTCTTCCCCAA: sgRNA targeting a luciferase-based reporter construct, no mismatches (chemistry not given here) | 0.3046 |
| AAAGAGCTGCGGGCCGGGCG: sgRNA targeting a luciferase-based reporter construct, no mismatches (chemistry not given here) | 0.06954 |
| AACGACATCACGGTCCATGC: sgRNA targeting a luciferase-based reporter construct, no mismatches (chemistry not given here) | 0.2424 |
| AACTCAAAGACCCGCTTTCG: sgRNA targeting a luciferase-based reporter construct, no mismatches (chemistry not given here) | 0.1408 |
| AAGATAAGTTCTCTCCTATT: sgRNA targeting a luciferase-based reporter construct, no mismatches (chemistry not given here) | 0.04594 |
| AAGTAGGCTCTCCTGAATGG: sgRNA targeting a luciferase-based reporter construct, no mismatches (chemistry not given here) | 0.1224 |
| ACCAGCATATGCCGGCCTGC: sgRNA targeting a luciferase-based reporter construct, no mismatches (chemistry not given here) | 0.767 |
| ACCCTGTCCACTCATATATG: sgRNA targeting a luciferase-based reporter construct, no mismatches (chemistry not given here) | 0.4172 |
| ACCGAAAGTCGCGCCGGACG: sgRNA targeting a luciferase-based reporter construct, no mismatches (chemistry not given here) | 0.2496 |
| ACCGCCAAACGGACCGCTTA: sgRNA targeting a luciferase-based reporter construct, no mismatches (chemistry not given here) | 0.3105 |
| ACGCGCACGGGTCTCACGCC: sgRNA targeting a luciferase-based reporter construct, no mismatches (chemistry not given here) | 0.3288 |
| AGACTGGTTTCCACCCGCTC: sgRNA targeting a luciferase-based reporter construct, no mismatches (chemistry not given here) | 1.298 |
| AGGGAGTCCGCATAGGCGGC: sgRNA targeting a luciferase-based reporter construct, no mismatches (chemistry not given here) | 0.1819 |
| AGTCCTCACCGTGGGGCACC: sgRNA targeting a luciferase-based reporter construct, no mismatches (chemistry not given here) | 0.09069 |
| ATAGTTCCCTCCATGCCCTT: sgRNA targeting a luciferase-based reporter construct, no mismatches (chemistry not given here) | 0.07786 |
| ATATCGGAGTCGGCCCAACC: sgRNA targeting a luciferase-based reporter construct, no mismatches (chemistry not given here) | 0.4113 |
| ATCTGACCTCCCGGCTAATT: sgRNA targeting a luciferase-based reporter construct, no mismatches (chemistry not given here) | 0.05737 |
| ATCTGGTCAGGACGCAAAGC: sgRNA targeting a luciferase-based reporter construct, no mismatches (chemistry not given here) | 0.1406 |
| ATCTTCCCGTCGACATAGCC: sgRNA targeting a luciferase-based reporter construct, no mismatches (chemistry not given here) | 0.1609 |
| CAACCAACAGGTCCGGCCCC: sgRNA targeting a luciferase-based reporter construct, no mismatches (chemistry not given here) | 0.3833 |
| CAAGCAAGTCCGGTCGGTTG: sgRNA targeting a luciferase-based reporter construct, no mismatches (chemistry not given here) | 0.3531 |
| CAGCCTCTCCCTGCGGATGC: sgRNA targeting a luciferase-based reporter construct, no mismatches (chemistry not given here) | 0.2509 |

| Substance | Mean efficiency |
| --- | --- |
| CAGGCATTGTGACGACGCGC: sgRNA targeting a luciferase-based reporter construct, no mismatches (chemistry not given here) | 0.1744 |
| CCACCGCGATATATGGGCGA: sgRNA targeting a luciferase-based reporter construct, no mismatches (chemistry not given here) | 0.5711 |
| CCAGTAACGTCAAAGCTAGG: sgRNA targeting a luciferase-based reporter construct, no mismatches (chemistry not given here) | 0.1068 |
| CCGCCGTGTGCTGCGAATAC: sgRNA targeting a luciferase-based reporter construct, no mismatches (chemistry not given here) | 0.1661 |
| CCGCGCCGAGGACTACCGCC: sgRNA targeting a luciferase-based reporter construct, no mismatches (chemistry not given here) | 0.4568 |
| CCGTCGAAGAACCGCGCAAT: sgRNA targeting a luciferase-based reporter construct, no mismatches (chemistry not given here) | 1.029 |
| CCTGGATGATACGCTGGCGC: sgRNA targeting a luciferase-based reporter construct, no mismatches (chemistry not given here) | 0.1807 |
| CCTTCGCGAGCACCCGGAAA: sgRNA targeting a luciferase-based reporter construct, no mismatches (chemistry not given here) | 0.3812 |
| CGAATTACTACGTAGAGCGG: sgRNA targeting a luciferase-based reporter construct, no mismatches (chemistry not given here) | 0.1117 |
| CGACGTTCCTGGCTCAATTG: sgRNA targeting a luciferase-based reporter construct, no mismatches (chemistry not given here) | 0.9067 |
| CGCCGGCACCGCGTCCCTAT: sgRNA targeting a luciferase-based reporter construct, no mismatches (chemistry not given here) | 0.2542 |
| CGTCGTTCTCGCCACCGCGC: sgRNA targeting a luciferase-based reporter construct, no mismatches (chemistry not given here) | 0.1461 |
| CTCACAGACGGCGCCCGGCG: sgRNA targeting a luciferase-based reporter construct, no mismatches (chemistry not given here) | 0.4741 |
| CTGCCGTTCTTCAGAAATAT: sgRNA targeting a luciferase-based reporter construct, no mismatches (chemistry not given here) | 0.3101 |
| CTGGGCCGGCGTGTCCGTTC: sgRNA targeting a luciferase-based reporter construct, no mismatches (chemistry not given here) | 0.4328 |
| CTTCCGACCCTTCGTTAGCC: sgRNA targeting a luciferase-based reporter construct, no mismatches (chemistry not given here) | 0.1815 |
| GAACTCCGACTAGATTATAT: sgRNA targeting a luciferase-based reporter construct, no mismatches (chemistry not given here) | 0.4012 |
| GACAAAGGATACTCAAATCC: sgRNA targeting a luciferase-based reporter construct, no mismatches (chemistry not given here) | 0.05169 |
| GACCGGATTCGCTACAACCC: sgRNA targeting a luciferase-based reporter construct, no mismatches (chemistry not given here) | 0.6963 |
| GCACCCTGCACGAATTATTT: sgRNA targeting a luciferase-based reporter construct, no mismatches (chemistry not given here) | 0.2041 |
| GCATGCCCACCTTATCGGCG: sgRNA targeting a luciferase-based reporter construct, no mismatches (chemistry not given here) | 0.1169 |
